# Results published in paper PMC5469758, “Identification of an in vivo orally active dual-binding protein-protein interaction inhibitor targeting TNFα through combined in silico/in vitro/in vivo screening” (Scientific Reports, 2017).
# What was measured:
# [1] = tested on: human TNFα induced apoptosis on the L929 cell line; assay: Neutralization of human TNFα induced apoptosis in L929 cells (MTT); assay type: cell-based; conditions: L929 cells
# Method: 80% confluent L929 cells were plated in flat bottom plates at 4 × 10^5 cells per well in 100 μl of DMEM medium containing 10% FBS, 2 mM L-Glutamine, 100 U/ml Penicillin − 100 μg/ml Streptomycin and incubated for one night at 37 °C, 5% CO2. TNFα or TNFβ (150 pg/ml), Actinomycin D (4 μg/ml) and the compounds at different concentrations (ranging from 100 μM to 0.8 μM) were mixed in 150 μl DMEM medium 1% FBS, 2 mM L-Glutamine, 100 U/ml Penicillin−100 μg/ml Streptomycin in U-bottom plates. After two hours incubation at 37 °C, 5% CO2, 100 μl of the mix was added to the plated cells and incubated at 37 °C, 5% CO2 for 24 hours. Supernatants were discarded and 100 μl of MTT at 0.5 mg/ml were added to wells. After two hours, supernatants were discarded and 200 μl of DMSO were then added. Plates were read at 570 nm with a spectrophotometer providing the optical density (OD) of each well. The percentage of neutralization of TNFα by a compound was calculated using equation 3:3 %Neutra=ODcompound−ODTNFα/ODcells−ODTNFα×100
# An IC50 could be computed from the percentage of neutralization for each compound.
# [2] = parameters: method as in PMID 25160057; conditions: cited from earlier work
# TNFα/TNFRI = tested on: TNFα/TNFRI; parameters: method as in PMID 16284179; conditions: cited from earlier work
# [3] = tested on: TNFα induced NF-κB activation in HEK cells; assay: HEK-Blue TNFα NF-κB secreted embryonic alkaline phosphatase reporter assay; assay type: cell-based, human; conditions: HEK cells
# Method: 80% confluent HEK-Blue™ TNFα were plated in flat bottom plates at 5 × 10^4 per well in 100 μl of DMEM containing 2 mM L-Glutamine, 100 U/ml Penicillin − 100 μg/ml Streptomycin and incubated at 37 °C, 5% CO2. Serial dilutions of compounds (ranging from 100 μM to 0.8 μM) were mixed with 400 pg/ml of human TNFα in DMEM containing 2% of FBS, 2 mM L-Glutamine, 100 U/ml Penicillin−100 μg/ml Streptomycin in U-bottom plates. After two hours of incubation at 37 °C, 5% CO2, 100 μl of the mix was added to the plated cells and incubated 24 hours at 37 °C, 5% CO2. 20 μl of supernatants were incubated for 3 hours with 180 μl of QUANTI-Blue™ to reveal secretion of phosphatase alcaline and plates were read at 620 nm with a spectrophotometer providing the optical density (OD).
# TNFα = conditions: fluorescence binding assay; cited from earlier work
# Balb/C mice = assay: LPS/D-Galactosamine induced lethal shock (TNFα-dependent hepatic shock model); assay type: in vivo; conditions: livers eight hours after LPS/D-Galactosamine
# Method: 7 weeks-old Balb/C mice were force-fed with 100 μl of a solution of DMSO containing various doses of compound 1 (5 mg down to 0.5 mg) eight hours before receiving an intraperitoneal injection of 200 μl of PBS containing 0.1 μg of LPS and 20 mg of D-Galactosamine. A control group (DMSO) was force-fed with 100 μl of a solution of DMSO alone eight hours before to be injected with 200 μl of LPS/D-Galactosamine solution. Mice survival was monitored for 48 hours after the injection of LPS/D-Galactosamine.
# 7 weeks-old Balb/C mice were forced-fed with a solution of DMSO containing 5 mg of compound 1 eight hours before receiving an intraperitoneal injection of 200 μl of PBS containing 0.1 μg of LPS and 20 mg of D-Galactosamine. Eight hours after LPS/D-Galactosamine injection, mice were sacrificed by cervical dislocation and livers were harvested, fixed in 4% formalin and embedded in paraffin. […] Slides were scanned with a slide scanner (Perkin Elmer) and analyzed with Pannoramic viewer (3D HISTECH).
# 7 weeks-old Balb/C mice were forced-fed with a solution of DMSO containing 5 mg of compound 1 eight hours before receiving an intraperitoneal injection of 200 μl of PBS containing 0.1 μg of LPS and 20 mg of D-Galactosamine. Three hours after LPS/D-Galactosamine injection, mice were anesthetized with ketamine/xylazine to recover blood by cardiac puncture. Sera were kept at −80 °C until assay.
# TNFα in serum was quantified using U-CyTech biosciences kits (Utrecht, The Netherlands) according to manufacturer’s procedures.
# 7 weeks-old Balb/C mice were forced-fed with a solution of DMSO containing 5 mg of compound 1 eight hours before receiving an intraperitoneal injection of 200 μl of PBS containing 0.1 μg of LPS and 20 mg of D-Galactosamine. Eight hours after, mice were anesthetized by an injection of ketamine/xylazine to recover blood by cardiac puncture. Sera were kept at −80 °C until assay. Quantification of AST/ALT was performed using Architec ci 8200 analyser (Abbott) with reagent kits from Abbott.
Molecule,concentration above which no cells survived (cellular toxicity) [1],toxicity precluding in vivo use [2],IC50 (TNFα/TNFRI),concentration above which no cells survived (cellular toxicity) [3],Kd (TNFα),expression of cleaved caspase 3 in liver (immunohistochemistry) (Balb/C mice),liver damage and hemorrhage (H&E histopathology) (Balb/C mice)
Cc1cc2occ(CN(C)CCN(C)Cc3cn(-c4cccc(C(F)(F)F)c4)c4ccccc34)c(=O)c2cc1C [SPD304],more than 30 µM,high toxicity,22 µM,more than 10 µM,5.4 ± 0.2 µM,,
etanercept,,,,,,reduced expression of cleaved caspase 3,reduced liver damage and hemorrhage
